Experimental data: patent publication US10385057B2, “Pyrazole compounds and methods of making and using same” (Lundbeck La Jolla Research Center, Inc., priority 2015, dated 2019)

Columns and labels:
MAGL = target: T1, MAGL (Mus musculus, UniProt O35678); experiment: In vitro competitive activity-based protein profiling, mouse MAGL; type: biochemical; conditions: for inhibition at 1 µM: read-out: MAGL % inh. 1 μM (mouse)
T1 construct: mouse brain membrane fraction or cell lysates for mouse assays; from tissue
T1 sequence (O35678 1-303): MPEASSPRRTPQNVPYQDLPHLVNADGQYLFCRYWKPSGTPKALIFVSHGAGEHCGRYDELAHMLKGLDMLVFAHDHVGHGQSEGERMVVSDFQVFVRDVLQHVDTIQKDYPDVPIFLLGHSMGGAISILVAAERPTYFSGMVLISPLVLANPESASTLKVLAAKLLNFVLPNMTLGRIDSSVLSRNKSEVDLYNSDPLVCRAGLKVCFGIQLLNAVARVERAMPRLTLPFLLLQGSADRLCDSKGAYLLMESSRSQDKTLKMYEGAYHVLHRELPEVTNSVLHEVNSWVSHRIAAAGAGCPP
How it was run: (§1)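 Mouse brain membranes or cell lysates (mouse) and human prefrontal cortex or cell membrane fractions (human), 1.0 mg/mL protein, preincubated with inhibitor 30 min at 37 °C, then FP-Rh or HT-01 probe 30 min at 37 °C. SDS-PAGE; MAGL and FAAH activity from in-gel fluorescence band intensity.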

FAAH = target: T2, FAAH (Mus musculus, UniProt O08914); experiment: In vitro competitive activity-based protein profiling, mouse FAAH; type: biochemical; conditions: for inhibition at 1 µM: read-out: FAAH % inh. 1 μM (mouse)
T2 construct: mouse brain membrane fraction or cell lysates for mouse assays; from tissue
T2 sequence (O08914 1-579): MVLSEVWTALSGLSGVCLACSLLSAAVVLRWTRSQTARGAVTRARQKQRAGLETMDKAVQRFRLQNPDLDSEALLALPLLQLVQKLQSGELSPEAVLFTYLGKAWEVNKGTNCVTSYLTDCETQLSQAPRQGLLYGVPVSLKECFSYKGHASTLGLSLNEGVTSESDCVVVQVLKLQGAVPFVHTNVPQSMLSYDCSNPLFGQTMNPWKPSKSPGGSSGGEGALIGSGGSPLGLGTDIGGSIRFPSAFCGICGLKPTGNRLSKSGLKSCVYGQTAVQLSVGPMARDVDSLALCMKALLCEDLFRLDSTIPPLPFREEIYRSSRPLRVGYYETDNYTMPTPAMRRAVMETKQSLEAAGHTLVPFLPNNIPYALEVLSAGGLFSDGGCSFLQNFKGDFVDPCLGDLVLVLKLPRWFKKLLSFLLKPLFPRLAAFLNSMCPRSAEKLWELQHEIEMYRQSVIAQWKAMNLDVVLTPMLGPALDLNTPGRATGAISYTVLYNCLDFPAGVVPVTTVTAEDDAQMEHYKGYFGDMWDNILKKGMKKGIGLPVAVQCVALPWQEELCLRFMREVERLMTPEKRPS
How it was run: as §1

SMILES	IC50 (MAGL) [µM]	inhibition at 1 µM (MAGL) [%]	IC50 (FAAH) [µM]	inhibition at 1 µM (FAAH) [%]
O=C(N1CC2CN(Cc3ccc(Cl)cc3N3CCOCC3)CC2C1)n1cc(Cl)cn1 (centres unmarked) [Example 99, (4-chloro-1H-pyrazol-1-yl)(5-(4-chloro-2-morpholinobenzyl)hexahydropyrrolo[3,4-c]pyrrol-2(1H)-yl)methanone]	≤ 0.1	≥ 75	≤ 0.1	≥ 75
O=C(N1CC2CN(Cc3cccc(Oc4ccccc4)c3)CC2C1)n1cc(Cl)cn1 (centres unmarked) [Example 124, (4-chloro-1H-pyrazol-1-yl)(5-(3-phenoxybenzyl)hexahydropyrrolo[3,4-c]pyrrol-2(1H)-yl)methanone]	≤ 0.1	≥ 75	≤ 0.1	≥ 75
NC(=O)c1cnn(C(=O)N2CCC3(CCN(Cc4ccc(N5CCCC5)c(C(F)(F)F)c4)C3)C2)c1 (centres unmarked) [Example 207, 1-(7-(4-(pyrrolidin-1-yl)-3-(trifluoromethyl)benzyl)-2,7-diazaspiro[4.4]nonane-2-carbonyl)-1H-pyrazole-4-carboxamide]	–	≥ 75	–	≥ 75
O=C(c1cnn(C(=O)N2CCC3(CCN(Cc4cc(Cl)cc(C(F)(F)F)c4)C3)C2)c1)N1CCN(C2CC2)CC1 (centres unmarked) [Example 36, (1-(7-(3-chloro-5-(trifluoromethyl)benzyl)-2,7-diazaspiro[4.4]nonane-2-carbonyl)-1H-pyrazol-4-yl)(4-cyclopropylpiperazin-1-yl)methanone]	–	≥ 75	–	≥ 75
O=C(N1CCC2(CCN(Cc3cccc(Cl)c3)C2)C1)n1cc(C(F)(F)F)cn1 (centres unmarked) [Example 168, (7-(3-chlorobenzyl)-2,7-diazaspiro[4.4]nonan-2-yl)(4-(trifluoromethyl)-1H-pyrazol-1-yl)methanone]	≤ 0.1	≥ 75	≤ 0.1	≥ 75
CN(Cc1ccccc1Cl)[C@@H]1C[C@@H]2CN(C(=O)n3cc(C(=O)N4CCOCC4)cn3)C[C@@H]2C1 [Example 85, (cis-5-((2-chlorobenzyl)(methyl)amino)hexahydrocyclopenta[c]pyrrol-2(1H)-yl)(4-(morpholine-4-carbonyl)-1H-pyrazol-1-yl)methanone]	–	50 to 75	–	≥ 75
CN(Cc1cccc(Oc2cccnc2)c1)[C@H]1C[C@@H]2CN(C(=O)n3cc(Cl)cn3)C[C@@H]2C1 [Example 163, (4-chloro-1H-pyrazol-1-yl)(trans-5-(methyl(3-(pyridin-3-yloxy)benzyl)amino)hexahydrocyclopenta[c]pyrrol-2(1H)-yl)methanone]	≤ 0.1	≥ 75	≤ 0.1	≥ 75
CN(Cc1ccccc1Cl)[C@@H]1C[C@@H]2CN(C(=O)n3cc(C(=O)N4CCN(C5CC5)CC4)cn3)C[C@@H]2C1 [Example 87, (cis-5-((2-chlorobenzyl)(methyl)amino)hexahydrocyclopenta[c]pyrrol-2(1H)-yl)(4-(4-cyclopropylpiperazine-1-carbonyl)-1H-pyrazol-1-yl)methanone]	–	25 to 50	–	0 to 25
O=C(N1C[C@H]2C[C@H](NCc3cccc(Cl)c3)C[C@H]2C1)n1cc(Cl)cn1 [Example 75, (4-chloro-1H-pyrazol-1-yl)(trans-5-((3-chlorobenzyl)amino)hexahydrocyclopenta[c]pyrrol-2(1H)-yl)methanone]	≤ 0.1	≥ 75	≤ 0.1	≥ 75
O=C(N1CC2CN(Cc3ccc(N4CCOCC4)cc3)CC2C1)n1cc(Cl)cn1 (centres unmarked) [Example 125, (4-chloro-1H-pyrazol-1-yl)(5-(4-morpholinobenzyl)hexahydropyrrolo[3,4-c]pyrrol-2(1H)-yl)methanone]	0.1 to 1	≥ 75	0.1 to 1	≥ 75
CN(Cc1ccc(Cl)cc1)[C@@H]1C[C@@H]2CN(C(=O)n3cc(Cl)cn3)C[C@@H]2C1 [Example 67, (4-chloro-1H-pyrazol-1-yl)(cis-5-((4-chlorobenzyl)(methyl)amino)hexahydrocyclopenta[c]pyrrol-2(1H)-yl)methanone]	0.1 to 1	≥ 75	≤ 0.1	≥ 75
CC(=O)N(Cc1cccc(Cl)c1)[C@@H]1C[C@@H]2CN(C(=O)n3cc(Cl)cn3)C[C@@H]2C1 [Example 60, N-(cis-2-(4-chloro-1H-pyrazole-1-carbonyl)octahydrocyclopenta[c]pyrrol-5-yl)-N-(3-chlorobenzyl)acetamide]	≤ 0.1	≥ 75	≤ 0.1	≥ 75
CC(=O)N(Cc1ccc(Cl)cc1)[C@@H]1C[C@@H]2CN(C(=O)n3cc(Cl)cn3)C[C@@H]2C1 [Example 69, N-(cis-2-(4-chloro-1H-pyrazole-1-carbonyl)octahydrocyclopenta[c]pyrrol-5-yl)-N-(4-chlorobenzyl)acetamide]	≤ 0.1	≥ 75	≤ 0.1	≥ 75
Cc1ccccc1CN1CCC2(CCN(C(=O)n3cc(C(F)(F)F)cn3)C2)C1 (centres unmarked) [Example 178, (7-(2-methylbenzyl)-2,7-diazaspiro[4.4]nonan-2-yl)(4-(trifluoromethyl)-1H-pyrazol-1-yl)methanone]	0.1 to 1	≥ 75	0.1 to 1	≥ 75
COc1ccccc1CN1CCC2(CCN(C(=O)n3cc(C(F)(F)F)cn3)C2)C1 (centres unmarked) [Example 179, (7-(2-methoxybenzyl)-2,7-diazaspiro[4.4]nonan-2-yl)(4-(trifluoromethyl)-1H-pyrazol-1-yl)methanone]	–	≥ 75	–	50 to 75
CNC(=O)c1cnn(C(=O)N2CCC3(CCN(Cc4cc(Cl)ccc4Cl)C3)C2)c1 (centres unmarked) [Example 40, 1-(7-(2,5-dichlorobenzyl)-2,7-diazaspiro[4.4]nonane-2-carbonyl)-N-methyl-1H-pyrazole-4-carboxamide]	–	≥ 75	–	≥ 75
O=C(N1CC2CN(Cc3ccccc3C(F)(F)F)CC2C1)n1cc(C(F)(F)F)cn1 (centres unmarked) [Example 155, (4-(trifluoromethyl)-1H-pyrazol-1-yl)(5-(2-(trifluoromethyl)benzyl)hexahydropyrrolo[3,4-c]pyrrol-2(1H)-yl)methanone]	≤ 0.1	≥ 75	≤ 0.1	≥ 75
NC(=O)c1cnn(C(=O)N2CC3CN(Cc4ccc(C(F)(F)F)cc4)CC3C2)c1 (centres unmarked) [Example 18, 1-(5-(4-(trifluoromethyl)benzyl)octahydropyrrolo[3,4-c]pyrrole-2-carbonyl)-1H-pyrazole-4-carboxamide]	≤ 0.1	≥ 75	≤ 0.1	≥ 75
O=C(c1cnn(C(=O)N2CC3CN(Cc4ccc(Oc5ccc(Cl)cc5)cc4)CC3C2)c1)N1CCCC1 (centres unmarked) [Example 189, (5-(4-(4-chlorophenoxy)benzyl)hexahydropyrrolo[3,4-c]pyrrol-2(1H)-yl)(4-(pyrrolidine-1-carbonyl)-1H-pyrazol-1-yl)methanone]	0.1 to 1	50 to 75	≤ 0.1	≥ 75
O=C(c1cnn(C(=O)N2CCC3(CCN(Cc4cc(Cl)ccc4Cl)C3)C2)c1)N1CCCC1 (centres unmarked) [Example 28, (1-(7-(2,5-dichlorobenzyl)-2,7-diazaspiro[4.4]nonane-2-carbonyl)-1H-pyrazol-4-yl)(pyrrolidin-1-yl)methanone]	–	25 to 50	–	≥ 75
CN(Cc1cccc(Cl)c1)[C@H]1C[C@@H]2CN(C(=O)n3cc(Cl)cn3)C[C@@H]2C1 [Example 72, (4-chloro-1H-pyrazol-1-yl)(trans-5-((3-chlorobenzyl)(methyl)amino)hexahydrocyclopenta[c]pyrrol-2(1H)-yl)methanone]	≤ 0.1	≥ 75	≤ 0.1	≥ 75
O=C(c1cnn(C(=O)N2CC3CN(Cc4ccccc4Cl)CC3C2)c1)N1CCCCC1 (centres unmarked) [Example 1, (5-(2-chlorobenzyl)hexahydropyrrolo[3,4-c]pyrrol-2(1H)-yl)(4-(piperidine-1-carbonyl)-1H-pyrazol-1-yl)methanone]	1 to 10	25 to 50	≤ 0.1	≥ 75
